Measured values: PubChem BioAssay AID1963867 (Molecular Pharmacology Branch, DTP, NCI, 2024)

System: KRAS-mutant PDC tumor spheroid with HUVEC/MSC, viability
Assay: Anticancer human tumor 327498-153-R-J2-PDC patient-derived uterine carcinosarcoma cell line growth inhibition [KRAS2]
Settings: for IC50: curve of first compound; for viability, T/C: stronger effect = lower value
Outline: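 Combination screen of spheroid viability in tumor-cell co-cultures with endothelial (HUVEC) and mesenchymal stem cell stroma. Each agent was tested in half-log dilutions, topping at clinical Cmax or at 10 microM without a known Cmax.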

[1] = second compound 0.0316 µM, first compound 0.0316 µM
[2] = second compound 0.0316 µM, first compound 0.1 µM
[3] = second compound 0.0316 µM, first compound 0.316 µM
[4] = second compound 0.0316 µM, first compound 1 µM
[5] = second compound 0.0316 µM, first compound 3.16 µM
[6] = second compound 0.0316 µM, first compound 10 µM
[7] = second compound 0.1 µM, first compound 0.0316 µM
[8] = second compound 0.1 µM, first compound 0.1 µM
[9] = second compound 0.1 µM, first compound 0.316 µM
[10] = second compound 0.1 µM, first compound 1 µM
[11] = second compound 0.1 µM, first compound 3.16 µM
[12] = second compound 0.1 µM, first compound 10 µM
[13] = second compound 0.316 µM, first compound 0.0316 µM
[14] = second compound 0.316 µM, first compound 0.1 µM
[15] = second compound 0.316 µM, first compound 0.316 µM
[16] = second compound 0.316 µM, first compound 1 µM
[17] = second compound 1 µM, first compound 0.0316 µM
[18] = second compound 1 µM, first compound 0.1 µM
[19] = second compound 1 µM, first compound 0.316 µM
[20] = second compound 1 µM, first compound 1 µM
[21] = second compound 1 µM, first compound 3.16 µM
[22] = second compound 1 µM, first compound 10 µM
[23] = second compound 3.16 µM, first compound 0.0316 µM
[24] = second compound 3.16 µM, first compound 0.1 µM
[25] = second compound 3.16 µM, first compound 0.316 µM
[26] = second compound 3.16 µM, first compound 1 µM
[27] = second compound 3.16 µM, first compound 3.16 µM
[28] = second compound 3.16 µM, first compound 10 µM
[29] = second compound 0.0316 µM, first compound 0.00316 µM
[30] = second compound 0.0316 µM, first compound 0.01 µM
[31] = second compound 0.1 µM, first compound 0.00316 µM
[32] = second compound 0.1 µM, first compound 0.01 µM
[33] = second compound 0.316 µM, first compound 0.00316 µM
[34] = second compound 0.316 µM, first compound 0.01 µM
[35] = second compound 1 µM, first compound 0.00316 µM
[36] = second compound 1 µM, first compound 0.01 µM
[37] = second compound 3.16 µM, first compound 0.00316 µM
[38] = second compound 3.16 µM, first compound 0.01 µM
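Note: spheroids exposed to agents for seven days before reading.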
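Throughout, for viability, T/C: 100% = DMSO vehicle wells so lower means fewer viable cells.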

**Q.** What does the source list for `CC(C)NCC(C(=O)N1CCN(c2ncnc3c2C(C)CC3O)CC1)c1ccc(Cl)cc1` (stereo not drawn) + C=CC(=O)N1CCN(c2nc(OCC3CCCN3C)nc3c2CCN(c2cccc4cccc(C)c24)C3)CC1CC#N?
**A.** IC50 (second compound 0.0316 µM): 66.9 nM; IC50 (second compound 0.1 µM): < 31.6 nM; IC50 (second compound 0.316 µM): < 31.6 nM; IC50 (second compound 1 µM): < 31.6 nM; IC50 (second compound 3.16 µM): < 31.6 nM; viability, T/C [1]: 59.5%; viability, T/C [2]: 44.3%; viability, T/C [3]: 32.8%; viability, T/C [4]: 22.8%; viability, T/C [5]: 15.5%; viability, T/C [6]: 9.69%; viability, T/C [7]: 48.7%; viability, T/C [8]: 32.4%; viability, T/C [9]: 22.1%; viability, T/C [10]: 15.7%; viability, T/C [11]: 12.7%; viability, T/C [12]: 11.4%; viability, T/C [13]: 42.5%; viability, T/C [14]: 29.8%; viability, T/C [15]: 18.3%; viability, T/C [16]: 13.5%; viability, T/C (second compound 0.316 µM, first compound 3.16 µM): 12.3%; viability, T/C (second compound 0.316 µM, first compound 10 µM): 7.28%; viability, T/C [17]: 34.5%; viability, T/C [18]: 25.2%; viability, T/C [19]: 15.1%; viability, T/C [20]: 12.6%; viability, T/C [21]: 9.14%; viability, T/C [22]: 6.92%; viability, T/C [23]: 0.26%; viability, T/C [24]: 0.41%; viability, T/C [25]: 0.51%; viability, T/C [26]: 0.15%; viability, T/C [27]: 0.14%; viability, T/C [28]: 0.21%

**Q.** For `CCN1CCN(Cc2ccc(Nc3ncc(F)c(-c4cc(F)c5nc(C)n(C(C)C)c5c4)n3)nc2)CC1` + C=CC(=O)N1CCN(c2nc(OCC3CCCN3C)nc3c2CCN(c2cccc4cccc(C)c24)C3)CC1CC#N, which IC50 (second compound 0.0316 µM) is on record?
**A.** < 3.16 nM

**Q.** What about the IC50 (second compound 0.1 µM) of the same compound?
**A.** < 3.16 nM

**Q.** And the IC50 (second compound 0.316 µM)?
**A.** < 3.16 nM

**Q.** And the IC50 (second compound 1 µM)?
**A.** < 3.16 nM

**Q.** What about the IC50 (second compound 3.16 µM) of the same compound?
**A.** < 3.16 nM

**Q.** And the viability, T/C [29]?
**A.** 55.9%

**Q.** What about the viability, T/C [30] of the same compound?
**A.** 46.6%

**Q.** And the viability, T/C [1]?
**A.** 33.4%

**Q.** What about the viability, T/C [2] of the same compound?
**A.** 35.2%

**Q.** And the viability, T/C [3]?
**A.** 34.5%

**Q.** What about the viability, T/C [4] of the same compound?
**A.** 40.4%

**Q.** What about the viability, T/C [31] of the same compound?
**A.** 49.1%

**Q.** And the viability, T/C [32]?
**A.** 35.4%

**Q.** And the viability, T/C [7]?
**A.** 28.2%

**Q.** What about the viability, T/C [8] of the same compound?
**A.** 34.2%

**Q.** What about the viability, T/C [9] of the same compound?
**A.** 33.7%

**Q.** And the viability, T/C [10]?
**A.** 36.4%

**Q.** What about the viability, T/C [33] of the same compound?
**A.** 40.5%

**Q.** And the viability, T/C [34]?
**A.** 33.1%

**Q.** And the viability, T/C [13]?
**A.** 30.1%

**Q.** What about the viability, T/C [14] of the same compound?
**A.** 24%

**Q.** And the viability, T/C [15]?
**A.** 33.3%

**Q.** And the viability, T/C [16]?
**A.** 37.9%

**Q.** What about the viability, T/C [35] of the same compound?
**A.** 31.1%

**Q.** What about the viability, T/C [36] of the same compound?
**A.** 23.1%

**Q.** What about the viability, T/C [17] of the same compound?
**A.** 21.1%

**Q.** What about the viability, T/C [18] of the same compound?
**A.** 19.3%

**Q.** What about the viability, T/C [19] of the same compound?
**A.** 23.5%

**Q.** What about the viability, T/C [20] of the same compound?
**A.** 13.5%

**Q.** And the viability, T/C [37]?
**A.** 1.79%

**Q.** And the viability, T/C [38]?
**A.** 0.22%

**Q.** And the viability, T/C [23]?
**A.** 0.46%

**Q.** And the viability, T/C [24]?
**A.** 0.84%

**Q.** And the viability, T/C [25]?
**A.** 0.58%

**Q.** And the viability, T/C [26]?
**A.** 0.24%

**Q.** With `CCNC(=O)CC1N=C(c2ccc(Cl)cc2)c2cc(OC)ccc2-n2c(C)nnc21` (stereo not drawn) + C=CC(=O)N1CCN(c2nc(OCC3CCCN3C)nc3c2CCN(c2cccc4cccc(C)c24)C3)CC1CC#N as the compound, how does the IC50 (second compound 0.0316 µM) read?
**A.** 657 nM

**Q.** What about the IC50 (second compound 0.1 µM) of the same compound?
**A.** 218 nM

**Q.** What about the IC50 (second compound 1 µM) of the same compound?
**A.** < 31.6 nM

**Q.** What about the IC50 (second compound 3.16 µM) of the same compound?
**A.** < 31.6 nM

**Q.** And the viability, T/C [1]?
**A.** 72.8%

**Q.** What about the viability, T/C [2] of the same compound?
**A.** 75.9%

**Q.** And the viability, T/C [3]?
**A.** 51.8%

**Q.** What about the viability, T/C [4] of the same compound?
**A.** 47.1%

**Q.** What about the viability, T/C [5] of the same compound?
**A.** 36.5%

**Q.** What about the viability, T/C [6] of the same compound?
**A.** 27%

**Q.** And the viability, T/C [7]?
**A.** 55.9%

**Q.** And the viability, T/C [8]?
**A.** 58.4%

**Q.** And the viability, T/C [9]?
**A.** 46.2%

**Q.** What about the viability, T/C [10] of the same compound?
**A.** 36.9%

**Q.** And the viability, T/C [11]?
**A.** 31.9%

**Q.** What about the viability, T/C [12] of the same compound?
**A.** 22.4%

**Q.** And the viability, T/C [17]?
**A.** 48.8%

**Q.** And the viability, T/C [18]?
**A.** 41.7%

**Q.** What about the viability, T/C [19] of the same compound?
**A.** 36.4%

**Q.** What about the viability, T/C [20] of the same compound?
**A.** 27.9%

**Q.** And the viability, T/C [21]?
**A.** 25.1%

**Q.** And the viability, T/C [22]?
**A.** 18.9%

**Q.** What about the viability, T/C [23] of the same compound?
**A.** 1.66%

**Q.** And the viability, T/C [24]?
**A.** 2.31%

**Q.** And the viability, T/C [25]?
**A.** 1.02%

**Q.** What about the viability, T/C [26] of the same compound?
**A.** 0.22%

**Q.** And the viability, T/C [27]?
**A.** 2.19%

**Q.** What about the viability, T/C [28] of the same compound?
**A.** 0.39%

**Q.** What does the source list for `Cn1ncnc1[C@H]1c2n[nH]c(=O)c3cc(F)cc(c23)N[C@@H]1c1ccc(F)cc1` + C=CC(=O)N1CCN(c2nc(OCC3CCCN3C)nc3c2CCN(c2cccc4cccc(C)c24)C3)CC1CC#N?
**A.** IC50 (second compound 0.0316 µM): 7.27 nM; IC50 (second compound 0.1 µM): 3.84 nM; IC50 (second compound 0.316 µM): 1.97 nM; IC50 (second compound 1 µM): < 0.316 nM; IC50 (second compound 3.16 µM): < 0.316 nM; viability, T/C (second compound 0.0316 µM, first compound 0.000316 µM): 77.5%; viability, T/C (second compound 0.0316 µM, first compound 0.001 µM): 69.2%; viability, T/C [29]: 63.3%; viability, T/C [30]: 45.2%; viability, T/C [1]: 28.2%; viability, T/C [2]: 16.9%; viability, T/C (second compound 0.1 µM, first compound 0.000316 µM): 54.5%; viability, T/C (second compound 0.1 µM, first compound 0.001 µM): 57.5%; viability, T/C [31]: 54.3%; viability, T/C [32]: 35.2%; viability, T/C [7]: 21.9%; viability, T/C [8]: 14.6%; viability, T/C (second compound 0.316 µM, first compound 0.000316 µM): 56.1%; viability, T/C (second compound 0.316 µM, first compound 0.001 µM): 48.5%; viability, T/C [33]: 49.8%; viability, T/C [34]: 32.8%; viability, T/C [13]: 18.7%; viability, T/C [14]: 13.7%; viability, T/C (second compound 1 µM, first compound 0.000316 µM): 44%; viability, T/C (second compound 1 µM, first compound 0.001 µM): 53.7%; viability, T/C [35]: 37.1%; viability, T/C [36]: 25.4%; viability, T/C [17]: 17.1%; viability, T/C [18]: 12.3%; viability, T/C (second compound 3.16 µM, first compound 0.000316 µM): 0.23%; viability, T/C (second compound 3.16 µM, first compound 0.001 µM): 0.18%; viability, T/C [37]: 0.94%; viability, T/C [38]: 0.16%; viability, T/C [23]: 0.18%; viability, T/C [24]: 0.22%
